Test system: H23 cells
Experiment: CRISPR/Cas9 synthetic lethal screen with TNO155 alone
Assay type: cell-based, human

With `C[C@@H]1OCC2(CCN(c3cnc(Sc4ccnc(N)c4Cl)c(N)n3)CC2)[C@@H]1N` [TNO155] the “neg|lfc” value (knockout gene AP2M1) was −1.5896, the “neg|lfc” value (knockout gene ATP6V0C) was −2.4937 and the “neg|lfc” value (knockout gene ATP6V1F) was −1.3822. The “neg|lfc” value (knockout gene ATP6V1H) was −1.2922, the “neg|lfc” value (knockout gene BUB1) was −1.3761 and the “neg|lfc” value (knockout gene C7orf26) was −1.2403. The “neg|lfc” value (knockout gene C12orf45) was −0.8919, the “neg|lfc” value (knockout gene C18orf21) was −1.7774 and the “neg|lfc” value (knockout gene CAPZA1) was −0.8323. The “neg|lfc” value (knockout gene CARD10) was −0.8745, the “neg|lfc” value (knockout gene CD3EAP) was −0.9138 and the “neg|lfc” value (knockout gene CENPM) was −2.7542. The “neg|lfc” value (knockout gene CFDP1) was −1.4115, the “neg|lfc” value (knockout gene COQ6) was −0.9015 and the “neg|lfc” value (knockout gene COX6B1) was −1.1999. The “neg|lfc” value (knockout gene CS) was −0.9482, the “neg|lfc” value (knockout gene DCST2) was −1.3843 and the “neg|lfc” value (knockout gene DDX52) was −1.2486. The “neg|lfc” value (knockout gene DENR) was −1.046, the “neg|lfc” value (knockout gene DHPS) was −1.8131 and the “neg|lfc” value (knockout gene DPM3) was −0.9381. For the same molecule, the “neg|lfc” value (knockout gene EGLN1) was −1.2972, the “neg|lfc” value (knockout gene ELP2) was −0.9643 and the “neg|lfc” value (knockout gene EXOSC2) was −2.2014. The “neg|lfc” value (knockout gene FASTKD5) was −1.4304, the “neg|lfc” value (knockout gene FBL) was −2.1994 and the “neg|lfc” value (knockout gene FXN) was −2.3715. The “neg|lfc” value (knockout gene G6PD) was −2.0605, the “neg|lfc” value (knockout gene GATA5) was −0.7392 and the “neg|lfc” value (knockout gene GMPS) was −1.5348. The “neg|lfc” value (knockout gene GNB2L1) was −1.4387, the “neg|lfc” value (knockout gene GTF2H3) was −0.8448 and the “neg|lfc” value (knockout gene GTF3C1) was −1.8687. For the same molecule, the “neg|lfc” value (knockout gene HARS2) was −1.9989, the “neg|lfc” value (knockout gene HIRA) was −1.0969 and the “neg|lfc” value (knockout gene HSPA13) was −1.2857. The “neg|lfc” value (knockout gene IPO9) was −1.5514, the “neg|lfc” value (knockout gene KIAA1324) was −0.9092 and the “neg|lfc” value (knockout gene KREMEN2) was −1.0026. For the same molecule, the “neg|lfc” value (knockout gene LARS) was −2.0903, the “neg|lfc” value (knockout gene LEMD2) was −1.7855 and the “neg|lfc” value (knockout gene LIAS) was −1.7787. The “neg|lfc” value (knockout gene LRPPRC) was −1.3022, the “neg|lfc” value (knockout gene MCAT) was −1.6999 and the “neg|lfc” value (knockout gene MMGT1) was −1.1768. For the same molecule, the “neg|lfc” value (knockout gene MPHOSPH10) was −1.2081, the “neg|lfc” value (knockout gene MRPL2) was −1.5188 and the “neg|lfc” value (knockout gene MRPS11) was −2.1012. The “neg|lfc” value (knockout gene MRPS14) was −2.7074, the “neg|lfc” value (knockout gene MTERFD1) was −0.8478 and the “neg|lfc” value (knockout gene MTFMT) was −1.4999. For the same molecule, the “neg|lfc” value (knockout gene MVD) was −2.2878, the “neg|lfc” value (knockout gene NDUFAF4) was −2.8677 and the “neg|lfc” value (knockout gene NDUFS2) was −1.6602. For the same molecule, the “neg|lfc” value (knockout gene NGDN) was −1.6157, the “neg|lfc” value (knockout gene NHP2) was −2.4304 and the “neg|lfc” value (knockout gene NUP50) was −1.7194. For the same molecule, the “neg|lfc” value (knockout gene OXA1L) was −1.0359, the “neg|lfc” value (knockout gene PAXIP1) was −1.2046 and the “neg|lfc” value (knockout gene PELO) was −1.8232. For the same molecule, the “neg|lfc” value (knockout gene PFDN2) was −1.6271, the “neg|lfc” value (knockout gene PHB) was −0.6638 and the “neg|lfc” value (knockout gene PHF6) was −0.9513. For the same molecule, the “neg|lfc” value (knockout gene PIGM) was −0.9761, the “neg|lfc” value (knockout gene PIK3C3) was −1.3101 and the “neg|lfc” value (knockout gene PKN2) was −1.323. The “neg|lfc” value (knockout gene PLEC) was −0.9261, the “neg|lfc” value (knockout gene POLR3C) was −2.1096 and the “neg|lfc” value (knockout gene PRMT1) was −2.4486. For the same molecule, the “neg|lfc” value (knockout gene PTCD3) was −1.5106, the “neg|lfc” value (knockout gene RABGGTA) was −1.5175 and the “neg|lfc” value (knockout gene RBFA) was −1.2488. The “neg|lfc” value (knockout gene RBM15) was −0.9128, the “neg|lfc” value (knockout gene RMND1) was −2.1857 and the “neg|lfc” value (knockout gene RNGTT) was −1.4545. The “neg|lfc” value (knockout gene RNMTL1) was −1.8816, the “neg|lfc” value (knockout gene RPF2) was −1.6299 and the “neg|lfc” value (knockout gene RPS2) was −1.4859. For the same molecule, the “neg|lfc” value (knockout gene RRP36) was −1.7306, the “neg|lfc” value (knockout gene RSBN1) was −1.1801 and the “neg|lfc” value (knockout gene SDHB) was −1.352. For the same molecule, the “neg|lfc” value (knockout gene SDHC) was −1.0873, the “neg|lfc” value (knockout gene SLC30A9) was −0.8169 and the “neg|lfc” value (knockout gene SMNDC1) was −1.605. For the same molecule, the “neg|lfc” value (knockout gene SNRPA) was −0.853, the “neg|lfc” value (knockout gene SORT1) was −0.7919 and the “neg|lfc” value (knockout gene SS18L2) was −1.8054. The “neg|lfc” value (knockout gene SYS1) was −1.4135, the “neg|lfc” value (knockout gene TAF2) was −1.6548 and the “neg|lfc” value (knockout gene TAMM41) was −1.389. For the same molecule, the “neg|lfc” value (knockout gene TEX10) was −1.2531, the “neg|lfc” value (knockout gene TFRC) was −0.7641 and the “neg|lfc” value (knockout gene TRAPPC3) was −1.2908. For the same molecule, the “neg|lfc” value (knockout gene TRAPPC11) was −1.3146, the “neg|lfc” value (knockout gene TRMT6) was −1.3112 and the “neg|lfc” value (knockout gene TSC2) was −1.2936. For the same molecule, the “neg|lfc” value (knockout gene VMP1) was −2.2825, the “neg|lfc” value (knockout gene XRCC3) was −1.7596 and the “neg|lfc” value (knockout gene YARS) was −2.5691. The “neg|lfc” value (knockout gene YKT6) was −1.2993.

— patent publication US20250082648A1, “COMPOSITIONS AND METHODS FOR ENHANCING KRAS INHIBITOR OR SHP2 INHIBITOR EFFICACY” (New York University, priority 2023, published 2025)
